Legend:
Format in all cases: in vivo, rat
T2DN rats [1] = experiment: Diabetic nephropathy model (T2DN rats): blood pressure by tail cuff method; settings: compound A 0.02% in mixed diet, lisinopril 10 mg/kg/day in drinking water, alone or combined, before and one month after dosing, FIG. 1
Experimental: (§1) The effect of compound A combined with ACE inhibitor in rats as a diabetic nephropathy model.
(§2) The test was conducted with rats (T2DN rats) that were an inbred line of Goto-Kakizaki (GK) rats with a manifestation of type II diabetes mellitus and which were in an advanced stage of kidney tissue injury resulting from a long-continued diabetic condition. Rats in groups each consisting of 8-9 animals (aged 14 months on average) were given repeated doses of compound A (0.02% in mixed diet) and the ACE inhibitor lisinopril (10 mg/kg/day in drinking water), either independently or in combination, for three months. A group of rats receiving only a diet containing no compound A were pathologic controls. Before and one month after the dosing, blood pressure measurement was conducted by the tail cuff method using a noninvasive automatic hemodynamometer. After the repeated dosing, the kidneys were removed from each rat under anesthetization with ketamine and thiobutabarbital and fixed in 10% neutral buffered formalin. Thin slices of the kidneys were prepared and subjected to Masson's trichrome stain. After masking the tissue specimens, thirty glomeruli were extracted from each specimen.
Blood pressure was expressed by the mean blood pressure as calculated from systolic and diastolic pressures ((systolic pressure−diastolic pressure)/3+diastolic pressure)).

T2DN rats [2] = experiment: Diabetic nephropathy model (T2DN rats): glomerular injury score, Masson's trichrome stain; settings: compound A 0.02% in mixed diet, lisinopril 10 mg/kg/day in drinking water, alone or combined, three months, grade 0-4, 30 glomeruli, FIG. 2
Experimental: as §1, §2

T2DN rats [3] = experiment: Diabetic nephropathy model (T2DN rats): renocortical (interstitial) fibrosis area by image analyzer; settings: compound A 0.02% in mixed diet, lisinopril 10 mg/kg/day in drinking water, alone or combined, three months, FIG. 3
Experimental: as §1, §2
To evaluate the morbidity of interstitial fibrosis, the fibrotic area percentage of 10 regions per specimen was calculated on an image analyzer.

Goto-Kakizaki (GK) rats = experiment: Diabetic animal model (GK rats): systolic blood pressure by tail cuff method, crossover; settings: GK rats on high-glucose diet; compound A in mixed diet, valsartan single oral dose, alone or combined; 1, 2, 4, 6 hours after administration; FIG. 4
From the text: The effect of compound A combined with angiotensin II receptor blocker in rats as a diabetic model. Goto-Kakizaki (GK) rats as model animals spontaneously manifesting non-obese diabetes mellitus (Japan SLC, Inc.) were fed a high-glucose diet containing compound A. During the feeding of compound A in a mixed diet, a vehicle or an angiotensin II receptor blocker was orally administered in a single dose and the effects of the two drugs, administered either independently or in combination, on blood pressure were studied by the crossover method. The systolic blood pressure was measured by the tail cuff method using a non-heated, noninvasive hemodynamometer immediately before the oral administration of the angiotensin II receptor blocker and 1, 2, 4, and 6 hours after such administration.

SMILES | blood pressure lowering action (mean blood pressure) (T2DN rats [1]) | glomerular injury score (improvement of scores of glomerular damage) (T2DN rats [2]) | renocortical fibrosis score (area of kidney interstitial fibrosis) (T2DN rats [3]) | action for lowering the systolic blood pressure (Goto-Kakizaki (GK) rats)
NCCCC[C@H](N[C@@H](CCc1ccccc1)C(=O)O)C(=O)N1CCC[C@H]1C(=O)O [Lisinopril, lisinopril] | a certain level of blood pressure lowering action | effective in improving scores of glomerular damage | no improvement in the area of interstitial fibrosis | 
CCCCC(=O)N(Cc1ccc(-c2ccccc2-c2nnn[nH]2)cc1)[C@H](C(=O)O)C(C)C [Valsartan, valsartan] |  |  |  | a certain level of action for lowering the systolic blood pressure
CCOc1ccc(Cc2cc([C@@H]3S[C@H](CO)[C@@H](O)[C@H](O)[C@H]3O)c(OC)cc2C)cc1 [Compound A, (1S)-1,5-anhydro-1-[3-(4-ethoxybenzyl)-6-methoxy-4-methylphenyl]-1-thio-D-glucitol] | little blood pressure lowering action | effective in improving scores of glomerular damage | effective in ameliorating kidney tissue damage | little blood lowering action

— patent US9320727B2, “Combinations of SGLT 2 inhibitors and antihypertensive drugs” (TAISHO PHARMACEUTICAL CO., LTD, priority 2012, dated 2016)
